Assays:
[1] = tested on: BV-2 murine microglial cell line; test: Inhibition of nitric oxide production in LPS-activated microglia (Griess reaction); type: cell-based; conditions: BV-2 cells, 100 ng/ml LPS, 24 hours
Experimental: (§1) The BV-2 murine microglial cell line, obtained from Prof. Eui-Ju, Choi, School of Life Sciences and Technology in Korea University, Korea, was treated with 100 ng/ml of LPS (lipopolysaccharide), known to activate microglial cells, in the presence of 1 μg/ml or 10 μg/ml obovatol for 24 hours, and then the nitric oxides secreted into the culture media were quantitatively analyzed using a Griess reaction method to determine the activity of the microglia. In detail, 50 μl of the microglial culture medium was reacted with 50 μl of the Griess reagent [1% sulfanilamide/0.1% naphthylethylene diamine dihydrochloride/2% phosphoric acid] at room temperature for 10 min, followed by measuring absorbance at 540 nm with the aid of a microplate reader (Anthos Labtec Instruments GmbH Salzburg, Austria). For comparison, magnolol, known to have a neuroprotective effect, was also tested in the same manner. Using NaNO2 as a standard material, inhibition rates of the test materials were calculated for the production of nitric oxides. Also, MTT assay was conducted to measure cytotoxicity in order to determine whether or not the inhibitory activity against microglial activity was attributed to cytotoxicity.

[2] = tested on: BV-2 murine microglial cell line; test: MTT assay for cytotoxicity; type: cell-based; conditions: concentrations as high as 30˜50 μg/ml
Experimental: as §1

[3] = tested on: SD rats; test: Acute oral toxicity assay in rats; type: in vivo
Experimental: Using six-week-old specific pathogen-free (SPF) SD rats, an acute toxicity assay was conducted. The rats were divided into groups of two rats. After being dissolved in injectable saline, the obovatol, obtained in Example 1, was orally administered once in a dosage of 1 g/kg/ml to the rat groups. Afterwards, observations were made of the death, clinical symptoms, and weight changes of the animals, and serological and serobiochemical assays were conducted. Also, an autopsy was carried out to examine abnormalities of the abdominal and thoracic organs with the naked eye.

[4] = Solubility (physical and chemical properties); type: physicochemical

## obovatol
[1]; 1 μg/ml compound
  Inhibition Rates (%) of Nitric Oxide Production: 29.8%
[1]; 10 μg/ml compound
  Inhibition Rates (%) of Nitric Oxide Production: 83.3%
[2]
  Cytotoxicity as measured by MTT assay: did not exhibit cytotoxicity
[3]; SD rats, oral, once, 1 g/kg/ml
  Noticeable clinical symptoms or death: None of the animals
  Toxicity in weight change, serological assay, serobiochemical assay, autopsy observations: not observed
[3]; rat, in vivo, po
  Dose causing no toxic effects: ≤ 500 mg/kg
[4]; Alcohol, DMSO
  Solubility: Soluble
[4]; Hexane, water
  Solubility: Insoluble

## C=CCc1ccc(O)c(-c2cc(CC=C)ccc2O)c1 [Magnolol, magnolol, reference compound]
[1]; Mus musculus, 1 μg/ml compound, read-out: Inhibition Rates (%) of Nitric Oxide Production
  inhibition at 1 µg/mL: 13.1%
[1]; Mus musculus, 10 μg/ml compound, read-out: Inhibition Rates (%) of Nitric Oxide Production
  inhibition at 10 µg/mL: 59%
